Reference: publication PMC9077470 (RSC Advances, 2018)
Values after ≈ are worked out from the molar mass of the structure shown.

How the values were obtained:
[1] = Partition coefficients in n-octanol/phosphate buffer (pH 7.4); type: physicochemical; conditions: means ± SD, n = 3
Method: The phosphate buffer and octanol were mutually saturated at 20–22 °C before use. Samples were dissolved in the aqueous phase and the n-octanol/phosphate buffer mixtures were shaken for 24 h to reach a distribution equilibrium. The volumes of each phase were chosen so that the solute concentration in the aqueous phase, before and after distribution, could readily be measured using HPLC method. The partition coefficients (P) were calculated from the following equation: [drawing 1] where Ci and Cw represent the solute concentrations in the aqueous buffer phase before and after distribution, respectively, Vw represents the volume of the aqueous phase, and Vo is the volume of the octanol phase.[16]

[2] = Aqueous solubility (equilibrium, distilled water); type: physicochemical; conditions: 25 °C, thermodynamic from solid, 25 ± 2 °C, means ± SD, n = 3, read-out: S (aqueous solubility)
Method: The mixtures were placed in an ultrasonic water bath for 10 min and then shaken for 24 h to establish a saturation equilibrium. Upon filtration, the filtrate was diluted with an appropriate amount of water and the mixture was analyzed by HPLC, the concentration of each compound in its saturated solution was calculated.

[3] = tested on: SOD, MDA, GSH, GSH-Px in colonic tissues; test: TNBS-induced colitis: levels of SOD, MDA, GSH and GSH-Px in colonic tissues; type: in vivo, mice; conditions: for GSH-Px activities in the colon / MDA levels in the colon / SOD activities in the colon / levels of GSH in the colon: vs TNBS group; for GSH-Px activities in the colon / MDA levels in the colon / SOD activities in the colon / levels of GSH in the colon / effect on decreasing the MDA level, compared with positive control: p < 0.01; for effect on increasing GSH, compared with positive control / effect on increasing GSH-Px, compared with positive control / effect on increasing SOD, compared with positive control / effect on decreasing the MDA level, compared with positive control: vs positive control
Method: Colitis was induced according to the previous study.[18,19] Briefly, after 12 h of fasting, mice were anesthetized with intraperitoneal pentobarbital sodium (35 mg kg^-1) before the induction of colitis. 0.1 mL of 50% (v/v) ethanol contained 2.5% (v/v) TNBS was instilled into the colon 3.5-4 cm from the anus by a gavage needle. The mice were kept in a head-down position for 30 s to prevent leakage of the intracolonic instillation. Mice in the control group received normal saline instead of TNBS solution, a physical mixture of 5-ASA and sodium butyrate was used as the positive control. […] The treatments were given once daily for 5 continuous days starting 24 hours after the induction of colitis. Colon tissue samples were homogenized with normal saline, the homogenate (10%, w/w) was centrifuged at 13 000 rpm for 15 min, and the resulting supernatant was diluted to 1% (w/w) for further assay. The protein levels of the colon homogenate were detected by a BCA protein assay kit. Then the activities of SOD and GSH-Px, and the levels of MDA and GSH of samples in each group were measured by the assay kits according to the provider's instructions.

P (partition coefficient) [1] | logP at 24 h [1] | solubility at 24 h [2] [mg/mL] | Structure (SMILES) | GSH-Px activities in the colon [3] | MDA levels in the colon [3] | SOD activities in the colon [3] | levels of GSH in the colon [3] | effect on increasing GSH, compared with positive control [3] | effect on increasing GSH-Px, compared with positive control [3] | effect on increasing SOD, compared with positive control [3] | effect on decreasing the MDA level, compared with positive control [3]
3.81 ± 0.35 | 0.58 ± 0.04 | 80 ± 20 (≈ 218 mM) | CCCC(=O)OCC(COC(=O)CCC)OC(=O)c1cc(N)ccc1O [5-ASDB, 2-(1,3-dibutyroxypropyl)-5-aminosalicylate] | increased | significantly decreased | increased | significantly higher | significantly greater effects | significantly greater effects | significantly greater effects | significantly greater effects
2.10 ± 0.24 | 0.32 ± 0.05 | 270 ± 30 (≈ 610 mM) | CCCC(=O)Oc1ccc(N=Nc2ccc(OC(=O)CCC)c(C(=O)O)c2)cc1C(=O)O [Ols-DB, 3,3′-azobis(6-hydroxybenzoicacid)dibutyrate] | increased | significantly decreased | increased | significantly higher | – | – | – | –
2.94 ± 0.37 | 0.47 ± 0.06 | 190 ± 40 (≈ 260 mM) | CCCC(=O)OCC(COC(=O)CCC)OC(=O)c1cc(N=Nc2ccc(O)c(C(=O)OC(COC(=O)CCC)COC(=O)CCC)c2)ccc1O [Ols-DBP] | increased | significantly decreased | increased | significantly higher | significantly greater effects | significantly greater effects | significantly greater effects | significantly greater effects
